Where two headings read alike, the source gives them in different places. Marks after values point to notes of the source that are not given here.
Tests used:
[1] = test system: thiol peptide; conditions: cited from earlier work
[2] = test system: ARE-dependent gene activity in a recombinant cell line; conditions: cited from earlier work
[3] = test system: thiol peptide; test: Cys-DPRA (Direct Peptide Reactivity Assay), literature data; conditions: for Cys-DPRA binary classification: FN: false negative; for Cys-DPRA binary classification: FP: false positive; for Cys-DPRA binary classification: TN: true negative; for Cys-DPRA binary classification: TP: true positive
[4] = Microplate spectrophotometric method (DCYA assay), fluorescence end-point; conditions: for DCYA 100-RI: RI = reactivity index, 2 equiv. electrophile, pH 10 buffer; for DCYA binary classification: FN: false negative; for DCYA binary classification: FP: false positive; for DCYA binary classification: TN: true negative; for DCYA binary classification: TP: true positive, positive if 100-RI <95; for DCYA assay reactivity / classification in words: microplate spectrophotometric method
[5] = cited from earlier work; for LLNA EC3: reported results (Table 7); for LLNA (EC3): effective concentration, published literature (Table 1); for LLNA Classification: published literature
[6] = NMR method: depletion of electrophile signal on reaction with DCYA
Excerpt: The described example can be applied to pure chemicals and mixtures. The method includes the acquisition of at least one NMR spectrum, mixing an electrophile and a nucleophile to acquire an array of control spectra and an addition of catalyst to record an array of reaction spectra. It also includes the quantification of at least one signal and the comparison of the signal with a control and the classification of the reaction based on the depletion of potential sensitizer based on the quantified residual signal.
2,5-Dimethylfuran was used as internal standard. When necessary, characterization of the product(s) formed during the reaction(s) was performed by homonuclear ^1H connectivities using 2D-COSY experiments. […] Two- and three bond ^1H-^13C connectivities were determined by gradient-HMBC experiments in which the evolution period for long-range ^1H-^13C coupling constants was optimized for a ^2,3JC,H of 8 Hz. Through-space ^1H connectivities were determined using a NOESY experiment with a mixing time of 0.450 s. […] Toronto, Canada].
In a 3 mm NMR tube, 1 volume of DCYA (100) mM in CDCl3) was mixed with one volume of sensitizer (100 mM in CDCl3) to give a final concentration of 50 mM for both DCYA and the sensitizer. Control ^1H NMR spectra (reference spectra) were recorded at regular intervals of for a minimum of 5 min. […] All spectra were recorded at constant temperature. All experiments were conducted using the manufacturer's standard presaturation pulse programs and experimental conditions were chosen as explained in NMR spectroscopy section. The progress of the reaction was followed by the diminished peak areas of the resonances for the signal of interest. The spectra were phased, referenced, and integrated using NMR data elaboration software. The structural characterizations of the resulting adducts were confirmed by conducting additional 2D-NMR experiments when necessary.
Covalent reaction of DCYA with carvone is dependent on the activation of the nucleophilic group (ex. sulfhydryl group to the reactive thio-anion) under basic conditions. This reaction is strongly dependent on the nature of the nucleophile and may be modulated by careful choice of the model nucleophile and the reaction conditions.
The control spectra are used as reference spectra (FIG. 3A). All the spectra were subjected to automatic phase and baseline correction using a Bernstein polynomial fit (order 3). After these two steps, all the spectra were integrated over the areas of interest. […] Both vinylic and adduct peak areas were normalized relative to the internal standard signal peaks. […] The concentrations of both electrophile and adduct were then plotted as percentage against time (in minutes). (FIG. 5).

[7] = reported results from the literature
[8] = based on depletion of electrophile signal at 30 min
[9] = conversion of test chemical at 90 min, 1 equiv. DCYA, 0.1 equiv. DBN, CDCl3

Cys-DPRA binary classification: FN [3] | Cys-DPRA binary classification: FP [3] | Cys-DPRA binary classification: TN [3] | Cys-DPRA binary classification: TP [3] | DCYA 100-RI [4] | DCYA binary classification: FN [4] | DCYA binary classification: FP [4] | DCYA binary classification: TN [4] | DCYA binary classification: TP [4] | Compound | KeratinoSens ™ EC3 ([2]; reported results (Table 7)) [µM] | also measured
0 | 0 | 1 | 0 | 89.4 | 0 | 1 | 0 | 0 | O=C(O)C(=O)O [Oxalic acid] |  | 
0 | 0 | 1 | 0 | 106.9 | 0 | 0 | 1 | 0 | O=C(O)c1ccccc1O [Salicylic acid] | >2000 | 
 |  |  |  | 18.2 |  |  |  |  | CC/C=C/C=O [t-2-Pentenal, trans-2-Pentenal] |  | NMR Classification [6]: Strong; Conversion at t30 (depletion of electrophile signal) ([6]; 30 min, 50 mM): 80%; NMR Method conversion ([6]; 90 min, 50 mM): 80%; DCYA assay reactivity / classification in words [4]: moderate reactive
 |  |  |  |  |  |  |  |  | COc1cc(/C=C/C(=O)CC(=O)/C=C/c2ccc(O)c(OC)c2)ccc1O [Curcumin] |  | Conversion at t30 (depletion of electrophile signal) ([6]; at 30 min, only one equivalent of DCYA, curcumin in DMSO-d6): 17^# %; Conversion at t30 (depletion of electrophile signal) ([6]; at 30 min, two equivalents of DCYA, curcumin in DMSO-d6): 43* %; NMR Method conversion ([6]; at 90 min, one equivalent of DCYA, DMSO-d6): 18%; NMR Method conversion ([6]; at 90 min, two equivalents of DCYA, DMSO-d6): 43%
 |  |  |  | 103.5 |  |  |  |  | Oc1cccc(O)c1 [Resorcinol] |  | DCYA assay reactivity / classification in words [4]: non-reactive
0 | 0 | 1 | 0 | 100.1 | 0 | 0 | 1 | 0 | CC(O)C(=O)O (stereo not drawn) [Lactic acid] | >2000 | 
 |  |  |  |  |  |  |  |  | Nc1ccccc1 [Aniline] | >2000 | Cys-DPRA % Pept. remain. [1, 7]: 100%
 |  |  |  |  |  |  |  |  | C=C1CC(OC(=O)/C(C)=C/C)C2C(=C)C(=O)OC2/C=C(\C)C(O)CC1O (stereo not drawn) [hydroxyiso-nobilin, hydroxyisonobilin] |  | DCYA assay reactivity / classification in words [4]: highly reactive
0 | 0 | 0 | 1 | 107.3 | 1 | 0 | 0 | 0 | CC/C=C\CCCCC=O [cis-6-Nonenal] | 687.67 | Cys-DPRA % Pept. remain. [1, 7]: 92%
0 | 0 | 1 | 0 | 106.4 | 0 | 0 | 1 | 0 | COc1cc(C=O)ccc1O [Vanillin] | >2000 | Cys-DPRA % Pept. remain. [1, 7]: 96.8%
 |  |  |  |  |  |  |  |  | C=C1C(=O)O[C@@H]2/C=C(/C)[C@H](O)C[C@@H](O)C(=C)C[C@H](OC(=O)/C(C)=C\C)[C@@H]12 [3 epi-hydroxyisonobilin] |  | DCYA assay reactivity / classification in words [4]: highly reactive
0 | 0 | 1 | 0 | 110.6 | 0 | 0 | 1 | 0 | O=C(OCc1ccccc1)c1ccccc1 [Benzyl benzoate] |  | 
0 | 0 | 1 | 0 | 100.7 | 0 | 0 | 1 | 0 | O=C(O)C(O)C(O)C(=O)O (stereo not drawn) [Tartaric acid] |  | 
0 | 0 | 0 | 1 | 88.8 | 0 | 0 | 0 | 1 | CC(C)=CCCC(C)=CC=O [Citral] | 67.36 | LLNA (EC3) [5]: 9.2%; LLNA Classification [5]: Moderate; LLNA EC3 [5]: 9.2%; KeratinoSens ™ EC3 ([2]; published literature (Table 1)): 67.36 µM; NMR assay reactivity / classification in words [6]: moderate/low electrophilic behavior; Conversion at t30 (depletion of electrophile signal) ([6]; 30 min, 50 mM): 29%; NMR Method conversion ([6]; 90 min, 50 mM): 29%; NMR Classification [6, 8]: Weak-moderate
 |  |  |  |  |  |  |  |  | C=C(C)[C@@H]1CCC2=CC(=O)C[C@@H](C)[C@]2(C)C1 [Nootkatone] |  | Conversion at t30 (depletion of electrophile signal) ([6]; at 30 min, 1 equiv. DCYA): 0%; NMR Classification [6, 8]: Non; NMR Method conversion [6, 9]: 0%

Compound | Cys-DPRA binary classification: FN [3] | Cys-DPRA binary classification: FP [3] | Cys-DPRA binary classification: TN [3] | Cys-DPRA binary classification: TP [3] | DCYA 100-RI [4] | DCYA binary classification: FN [4] | DCYA binary classification: FP [4] | DCYA binary classification: TN [4] | DCYA binary classification: TP [4] | KeratinoSens ™ EC3 ([2]; reported results (Table 7)) [µM] | also measured
Clc1ccccc1 [Chlorobenzene] | 0 | 0 | 1 | 0 | 97.8 | 0 | 0 | 1 | 0 |  | Cys-DPRA % Pept. remain. [1]: 99.6%; KeratinoSens ™ EC3 [2]: >2000 µM
O=Cc1ccccc1 [Benzaldehyde] | 0 | 1 | 0 | 0 | 98.1 | 0 | 0 | 1 | 0 |  | 
CC=CC(=O)CC [4-Hex-3-en-one] | 0 | 0 | 0 |  | 2.8 | 0 | 0 | 0 | 1 |  | LLNA EC3 [5]: 4.2%
CC1=C(C=O)C(C)(C)CC=C1 [Safranal] | 0 | 0 | 0 | 1 | 82.9 | 0 | 0 | 0 | 1 |  | LLNA (EC3) [5]: 7.5%; LLNA Classification [5]: Moderate; LLNA EC3 [5]: 7.5%; Cys-DPRA, percentage of thiol peptide depleted ([1]; adopted from the literature): 90.5^15%; Cys-DPRA % Pept. remain. [1, 7]: 9.5%; NMR assay reactivity / classification in words [6]: less reactive by NMR in the short time frame; Conversion at t30 (depletion of electrophile signal) ([6]; at 30 min, 1 equiv. DCYA): 3%; NMR Classification [6, 8]: Non; NMR Method conversion [6, 9]: 4%
CC(C)=CCCC(C)=CCCC(C)=CC=O [Farnesal] | 0 | 0 | 0 | 1 |  |  |  |  |  | >2000 | Cys-DPRA % Pept. remain. [1, 7]: 83.6%
O=C1CCO1 [Propionolactone] | 0 | 0 | 0 |  |  | 0 | 0 | 0 | 1 |  | 

From patent publication US10261017B2, “Methods for detecting and categorizing skin sensitizers” (University of Mississippi, priority 2014, dated 2019)
